From patent US6448052B2, “Carbonyl reductase enzyme and methods for its use” (Kaneka Corporation, priority 1997, dated 2002) come the findings set out here.

B1: CRD enzyme: carbonyl reductase purified from Candida magnoliae IFO 0705, amino acid sequence SEQ ID NO:1 (protein, listed as Candida magnoliae)
chain: MAKNFSNVEYPAPPPAHTKNESLQVLDLFKLNGKVASITGSSSGIGYALAEAFAQVGADVAIWYNSHDATGKAEALAKKYGVKVKAYKANVSSSDAVKQTIEQQIKDFGHLDIVVANAGIPWTKGAYIDQDDDKHFDQVVDVDLKGVGYVAKHAGRHFRERFEKEGKKGALVFTASMSGHIVNVPQFQATYNAAKAGVRHFAKSLAVEFAPFARVNSVSPGYINTEISDFVPQETQNKWWSLVPLGRGGETAELVGAYLFLASDAGSYATGTDIIVDGGYTLP

One series has as its system CRD enzyme. The series is described as follows: Substrate specificity of the purified CRD enzyme (decrease in NADPH absorption at 340 nm). It counts as biochemical, Candida magnoliae IFO 0705. Conditions: NADPH as coenzyme. As for the experimental part:
First, the above yeast is cultured in an appropriate medium, and microbe bodies are collected from the resultant culture by centrifugation. The microbe bodies are destroyed by Dyno mill (manufactured by Dyno-Mill), for example, and centrifuged to remove cell debris and thus obtain a cell-free extract. The cell-free extract is then subjected to a processing, such as salting-out (e.g., ammonium sulfate precipitation and sodium phosphate precipitation), solvent precipitation (a protein fractionation precipitation method using acetone, ethanol, or the like), dialysis, gel filtration, ion exchange, column chromatography such as a reverse phase chromatography, and ultrafiltration, alone or in combination, to purify the enzyme. The CRD enzyme activity can be determined by measuring a reduction in the absorption at 340 nm at 30° C., for a 100 mM phosphate buffer (pH 6.5) with 1 mM ethyl 4-chloroacetoacetate as a substrate, 0.1 mM NADPH as a coenzyme, and the enzyme added thereto, or a 200 mM phosphate buffer (pH 7.0) with 0.2 mM ethyl 4-chloroacetoacetate as a substrate and 0.32 mM NADPH as a coenzyme added thereto. Under these reaction conditions, oxidation of 1 μmol NADPH into NADP in one minute is defined as one unit of enzymatic activity.
The enzyme activity was determined by, basically, allowing 3 ml of a reaction solution including 0.2 mM ethyl 4-chloroacetoacetate as a substrate, 0.32 mM NADPH as a coenzyme, and 0.1 ml of an enzyme solution in a 200 mM phosphate buffer (pH 7.0) to react at 30° C. for one minute and measuring a reduction in the absorption at 340 nm.
The enzyme according to the present invention was reacted using various carbonyl compounds shown in Table 1 below as a substrate under the same conditions as those used for ethyl 4-chloroacetoacetate.
Consider `CCOC(=O)CC(C)=O` [Ethyl acetoacetate], for which the “substrate specificity (activity of the enzyme to the substrate, in words)” value is “substantially no activity”.

`CCOC(=O)CC(=O)CCl` [ethyl 4-chloroacetoacetate]: the “substrate specificity (activity of the enzyme to the substrate, in words)” value was “strong activity”.

The series is the same for the next values; noted with them: Substrate 0.2 mM; 0.32 mM NADPH, 200 mM phosphate buffer pH 7.0, 30° C.; ethyl 4-chloroacetoacetate = 100.
Consider `O=Cc1ccccc1` [Benzaldehyde], for which the “Relative activity (%)” value came to 0%.

With `CC12CCC(C(=O)C1=O)C2(C)C` (stereo not shown) [Camphor quinone], the “Relative activity (%)” value stood at 0%.

Turning to `O=CCCl` [Chloroacetoaldehyde], the “Relative activity (%)” value came to 0%.

`CC(=O)C(C)=O` [Diacetyl]: the “Relative activity (%)” value came out at 19%.

Regarding `CCOC(=O)CC(C)=O` [Ethyl acetoacetate], the “Relative activity (%)” value is 0%.

As for `O=CC=O` [Glyoxal], the “Relative activity (%)” value came out at 0%.

Regarding `CC(=O)C=O` [Methyl glyoxal], the “Relative activity (%)” value is recorded as 0%.

As for `O=Cc1cccnc1` [Nicotinaldehyde], the “Relative activity (%)” value came to 0%.

Turning to `CCOC(=O)C(Cl)C(C)=O` (stereo not shown) [ethyl 2-chloroacetoacetate], the “Relative activity (%)” value turned out to be 95%.

Consider `CCOC(=O)CC(=O)CCl` [ethyl 4-chloroacetoacetate], for which the “Relative activity (%)” value is 100%.

For `O=Cc1ccncc1` [isonicotinaldehyde], the “Relative activity (%)” value was determined as 0%.

As for `O=Cc1cccc(Cl)c1` [m-chlorobenzaldehyde], the “Relative activity (%)” value was 0%.

In the case of `O=Cc1cccc([N+](=O)[O-])c1` [m-nitrobenzaldehyde], the “Relative activity (%)” value is recorded as 0%.

For `COC(=O)C(Cl)C(C)=O` (stereo not shown) [methyl 2-chloroacetoacetate], the “Relative activity (%)” value stood at 11%.

As for `COC(=O)CC(=O)CCl` [methyl 4-chloroacetoacetate], the “Relative activity (%)” value was 11%.

Regarding `O=Cc1ccccc1Cl` [o-chlorobenzaldehyde], the “Relative activity (%)” value was found to be 0%.

Consider `O=Cc1ccccc1[N+](=O)[O-]` [o-nitrobenzaldehyde], for which the “Relative activity (%)” value came out at 0%.

For the molecule `CCCCCCCCOC(=O)CC(=O)CCl` [octyl 4-chloroacetoacetate], the “Relative activity (%)” value was determined as 36%.

For `O=Cc1ccc(Cl)cc1` [p-chlorobenzaldehyde], the “Relative activity (%)” value is 0%.

As for `O=Cc1ccc([N+](=O)[O-])cc1` [p-nitrobenzaldehyde], the “Relative activity (%)” value stood at 0%.

The next series deals with CRD enzyme. The series is described as follows: Effect of metal ions and inhibitors on CRD enzyme activity, ethyl 4-chloroacetoacetate as substrate. In kind it is biochemical, Candida magnoliae IFO 0705.
Conditions: not given
For the molecule `[Cl-].[Cl-].[Co+2]` [CoCl2], the “Relative activity (%)” value stood at 89%.

Consider `[Cl][Hg][Cl]` [HgCl2], for which the “inhibitor (enzyme inhibited, in words)” value was “inhibited”.

In the case of `O=C(O)CI` [Iodoacetic acid], the “Relative activity (%)” value is recorded as 100%.

For the molecule `O=c1c(O)c(-c2ccc(O)c(O)c2)oc2cc(O)cc(O)c12` [Quercetin], the “inhibitor (enzyme inhibited, in words)” value is “inhibited”.

Staying with this series, now noted: Concentration of addition 0.01 mM; non-added = 100.
Turning to `O=c1c(O)c(-c2ccc(O)c(O)c2)oc2cc(O)cc(O)c12` [Quercetin], the “Relative activity (%)” value stood at 84%.

The series is the same for the next values; noted with them: Concentration of addition 0.05 mM; non-added = 100.
As to `O=C(O)c1cc(SSc2ccc([N+](=O)[O-])c(C(=O)O)c2)ccc1[N+](=O)[O-]` [DTNB], the “Relative activity (%)” value was 100%.

The series is the same for the next values; noted with them: Concentration of addition 0.1 mM; non-added = 100.
For the molecule `O=[N+]([O-])c1ccc(O)c([N+](=O)[O-])c1` [2,4-dinitrophenol], the “Relative activity (%)” value is given as 86%.

Turning to `O=c1oc2ccccc2c(O)c1Cc1c(O)c2ccccc2oc1=O` [Dicoumarol], the “Relative activity (%)” value came to 97%.

For `[Cl][Hg][Cl]` [HgCl2], the “Relative activity (%)” value was 49%.

With `O=c1c(O)c(-c2ccc(O)c(O)c2)oc2cc(O)cc(O)c12` [Quercetin], the “Relative activity (%)” value was determined as 0%.

Still in this series, the particulars now being: Concentration of addition 1 mM; non-added = 100.
`[Cl][Cd][Cl]` [CdCl2]: the “Relative activity (%)” value stood at 91%.

As for `O=S(=O)([O-])[O-].[Cu+2]` [CuSO4], the “Relative activity (%)” value is given as 85%.

With `O=C(O)CN(CCN(CC(=O)O)CC(=O)O)CC(=O)O` [EDTA], the “Relative activity (%)” value worked out at 95%.

With `[Cl-].[Cl-].[Mg+2]` [MgCl2], the “Relative activity (%)” value was 83%.

With `CCN1C(=O)C=CC1=O` [NEM], the “Relative activity (%)” value is reported as 105%.

In the case of `O=S(=O)(F)Cc1ccccc1` [PMSF], the “Relative activity (%)” value amounted to 93%.

In the case of `[Cl][Pb][Cl]` [PbCl2], the “Relative activity (%)” value was 86%.

Turning to `NNc1ccccc1` [Phenylhydrazine], the “Relative activity (%)” value is 97%.

Regarding `[Cl][Sn][Cl]` [SnCl2], the “Relative activity (%)” value came to 77%.

Turning to `O=S(=O)([O-])[O-].[Zn+2]` [ZnSO4], the “Relative activity (%)” value is reported as 97%.

On to `O=C(O)c1cc[c]([Hg][Cl])cc1` [p-CMB], for which the “Relative activity (%)” value is 88%.

Tested on in the next series: not given
Assay: not given
It counts as physicochemical, Candida magnoliae IFO 0705. Conditions: 0.5 h, pH 7. How it is done: The expression that an enzyme is “stable” as used herein means that after being processed at pH 7.0 at 40° C. for 30 minutes the enzyme sustains an activity of 90% or more of that before the processing.
After the enzyme according to the present invention was treated at pH 7.0at 40° C. for 30 minutes, the activity of the enzyme was measured using ethyl 4-chloroacetoacetate as a substrate. As a result, the activity of 90% of that before the treatment remained.
Regarding B1, the “heat stability: activity remaining relative to before the treatment” value worked out at 90%.

The next series deals with CRD enzyme. The series is described as follows: Organic solvent resistance of the CRD enzyme. In kind it is biochemical, Candida magnoliae IFO 0705. To be noted: equivalent amount of solvent added to phosphate buffer (pH 7.0), shaken at 28° C. for 30 minutes.
As to `CCCCOC(C)=O` [butyl acetate], the “residual activity of the enzyme in the aqueous phase” value is 85%.

For the molecule `CCOC(C)=O` [ethyl acetate], the “residual activity of the enzyme in the aqueous phase” value stood at 72%.
